Source: US6326372A, “Lactam and cyclic urea derivatives useful as alpha 1a adrenoceptor antagonists” (Merck & Co., Inc., priority 2000, dated 2001)
Structures can show the parent of a compound that is named as a salt.

tested on: alpha 1a receptors versus alpha 1b and alpha 1d receptors; experiment: Selective Binding Assays: binding to alpha 1a versus alpha 1b and alpha 1d receptors ([125I]-HEAT competition binding); design: species or system human; details: alpha 1a versus both alpha 1b and alpha 1d; at least about
Method: Membranes prepared from the stably transfected human alpha 1a cell line (ATCC CRL 11140) were used to identify compounds that bind to the human alpha 1a adrenergic receptor. These competition binding reactions (total volume=200 μl) contained 50 mM Tris-HCl pH. 7.4, 5 mM EDTA, 150 mM NaCl, 100 pM [^125 I]-HEAT, membranes prepared from the alpha 1a cell line and increasing amounts of unlabeled ligand. Reactions were incubated at room temperature for one hour with shaking. Reactions were filtered onto Whatman GF/C glass fiber filters with a Inotec 96 well cell harvester. Filters were washed three times with ice cold buffer and bound radioactivity was determined (Ki).
Membranes prepared from stably transfected human alpha 1d and alpha 1b cell lines (ATCC CRL 11138 and CRL 11139, respectively) were used to identify compounds that selectively bind to the human alpha 1a adrenergic receptor. These competition binding reactions (total volume=200 μl) contained 50 mM Tris-HCl pH. 7.4, 5 mM EDTA, 150 mM NaCl, 100 pM [^125 I]-HEAT, membranes prepared from cell lines transfected with the respective alpha 1 subtype expression plasmid and increasing amounts of unlabeled ligand. Reactions were incubated at room temperature for one hour with shaking. Reactions were filtered onto Whatman GF/C glass fiber filters with a Inotec 96 well cell harvester. Filters were washed three times with ice cold buffer and bound radioactivity was determined (Ki).

Row | Structure (SMILES) | fold more selective in binding to alpha 1a receptors versus binding to the alpha 1b and alpha 1d receptors
1 | C[C@H](c1ccccc1)N1CCC(c2ccc(F)c(F)c2)N(C(=O)NCCCN2CCC(c3ccc(F)cc3)CC2)C1=O (single isomer, unassigned) [Example 14 (Step 8, Diastereomer A), Hydrochloride] | at least 10 fold
2 | N#Cc1cc(F)ccc1C1CCN(CCCNC(=O)N2C(=O)CCCC2c2ccc(F)c(F)c2)CC1 (single isomer, unassigned) [Example 9, hydrochloride] | at least 10 fold
3 | CN1CCC(c2ccc(F)c(F)c2)N(C(=O)NCCCN2CCC(c3ccc(F)cc3)CC2)C1=O (stereo not drawn) [Example 17, 4-(3,4-Difluorophenyl)-1-methyl-3-[(4'-(4-fluorophenyl)piperidin-1'-yl)propyl]aaminocarbonyltetrahydropyrimidin-2-one Hydrochloride] | at least 10 fold
4 | C[C@H](c1ccccc1)N1CC(C)(C)C(c2ccc(F)c(F)c2)N(C(=O)NCCCN2CCC(c3ccc(F)cc3)CC2)C1=O (single isomer, unassigned) [Example 18 (Step 2, Diastereomer A)] | at least 10 fold
5 | CC1CNC(=O)N(C(=O)NCCCN2CCC(c3ccc(F)cc3)CC2)C1c1ccc(F)c(F)c1 (single isomer, unassigned) [Example 22 (Isomer B), Hydrochloride] | at least 10 fold
6 | CC1(C)CCC(c2ccc(F)c(F)c2)N(C(=O)NCCCN2CCC(c3ccc(F)cc3)CC2)C1=O.Cl (single isomer, unassigned) [Example 1] | at least 10 fold
7 | O=C(NCCCN1CCC(c2ccc(F)cc2)CC1)N1C(=O)NC[C@@H](C2CC2)[C@@H]1c1ccc(F)c(F)c1 (relative stereo) [Example 21 (Isomer C), (4R,5S)-, (4S,5S)-, (4R,5R)-, and (4S,5R)-5-Cyclopropyl-4-(3,4-difluorophenyl)-3-[(4'-(4-fluorophenyl)piperidin-1'-yl)propyl]aminocarbonyltetrahydropyrimidin-2-one Hydrochlorides] | at least 10 fold
8 | COc1cc(F)ccc1[C@H]1CC[C@H](N2CC[C@@H](NC(=O)N3C(=O)N([C@H](C)c4ccccc4)CCC3c3ccc(F)c(F)c3)C2)CC1 (stereo partly drawn) [Example 15 (Table 1, entry 5), 3-[[3(R)-1-[trans-4-(2-methoxy-4-fluorophenyl)cyclohexyl]pyrrolidin-3-yl]-aminocarbonyl]-1-((R)-α-methylbenzyl)-4-(3,4-difluorophenyl)pyrimidin-2-one] | at least 10 fold
9 | CC1CC(=O)N(C(=O)NCCCN2CCC(c3ccc(F)cc3)CC2)C(c2ccc(F)c(F)c2)C1 (single isomer, unassigned) [Example 3 (Isomer C), Hydrochloride] | at least 10 fold
10 | O=C(NCCCN1CCC(c2ccc(F)cc2)CC1)N1C(=O)NC[C@H](C2CC2)[C@@H]1c1ccc(F)c(F)c1 (relative stereo) [Example 21 (Isomer D), (4R,5S)-, (4S,5S)-, (4R,5R)-, and (4S,5R)-5-Cyclopropyl-4-(3,4-difluorophenyl)-3-[(4'-(4-fluorophenyl)piperidin-1'-yl)propyl]aminocarbonyltetrahydropyrimidin-2-one Hydrochlorides] | at least 10 fold
11 | CC1CC(=O)N(C(=O)NCCCN2CCC(c3ccc(F)cc3)CC2)C(c2ccc(F)c(F)c2)C1 (single isomer, unassigned) [Example 3 (Isomer A), Hydrochloride] | at least 10 fold
12 | O=C1CCCC(c2ccc(F)c(F)c2)N1C(=O)NCCCN1CCC(c2ccccn2)CC1 (single isomer, unassigned) [Example 8, Dihydrochloride] | at least 10 fold
13 | O=C(NCCCN1CCC(c2ccc(F)cc2)CC1)N1C(=O)NC[C@@H](C2CC2)[C@@H]1c1ccc(F)c(F)c1 (relative stereo) [Example 21 (Isomer A), (4R,5S)-, (4S,5S)-, (4R,5R)-, and (4S,5R)-5-Cyclopropyl-4-(3,4-difluorophenyl)-3-[(4'-(4-fluorophenyl)piperidin-1'-yl)propyl]aminocarbonyltetrahydropyrimidin-2-one Hydrochlorides] | at least 10 fold
14 | CC1CNC(=O)N(C(=O)NCCCN2CCC(c3ccc(F)cc3)CC2)C1c1ccc(F)c(F)c1 (single isomer, unassigned) [Example 22 (Isomer C), Hydrochloride] | at least 10 fold
15 | C[C@H](c1ccccc1)N1CCC(c2ccc(F)c(F)c2)N(C(=O)NCCCN2CCC(c3ccccn3)CC2)C1=O (stereo partly drawn) [Example 15 (Table 1, entry 1), 4-(3,4-difluorophenyl)-1-((R)-α-methylbenzyl)-3-[(4'-(2-pyridyl)piperidin-1'-yl)propyl]aminocarbonyltetrahydropyrimidin-2-one] | at least 10 fold
16 | CC1(C)CN(Cc2ccccc2)C(=O)N(C(=O)NCCCN2CCC(c3ccc(F)cc3)CC2)C1c1ccc(F)c(F)c1 [Example 19, (4R)- and (4S)-4-(3,4-Difluorophenyl)-5,5-dimethyl-1-benzyl-3-[(4'-(4-fluorophenyl)piperidin-1'-yl)propyl]aminocarbonyltetrahydropyrimidin-2-one Hydrochloride] | at least 10 fold
17 | O=C1CCCC(c2ccc(F)c(F)c2)N1C(=O)NCCCN1CCC(c2ccc(F)cc2)CC1 (racemic) [Example 4, (6RS)-, 6(R)-, and 6(S)-1-[3-[4-(4-Fluorophenyl)piperidin-1-yl]-propylaminocarbonyl]-6-(3,4-difluorophenyl)piperidin-2-one Hydrochloride] | at least 10 fold
18 | O=C1CCCC(c2ccc(F)c(F)c2)N1C(=O)NCCCN1CCC2(CCc3ccccc32)CC1 (single isomer, unassigned) [Example 7 (Enantiomer A), Hydrochloride] | at least 10 fold
19 | CC1(C)CNC(=O)N(C(=O)NCCCN2CCC(c3ccc(F)cc3)CC2)C1c1ccc(F)c(F)c1 (single isomer, unassigned) [Example 18 (Step 3, Enantiomer A), Hydrochloride] | at least 10 fold
20 | CC1(C)CC(=O)N(C(=O)NCCCN2CCC(c3ccc(F)cc3)CC2)C(c2ccc(F)c(F)c2)C1.Cl (single isomer, unassigned) [Example 2 (Enantiomer A)] | at least 10 fold
21 | O=C1CCCC(c2ccc(F)c(F)c2)N1C(=O)N[C@@H]1CCN([C@H]2CC[C@H](c3ccccn3)CC2)C1 (single isomer, unassigned) [Example 10 (Enantiomer A), Dihydrochloride] | at least 10 fold
